In PubChem BioAssay AID248 (DTP/NCI, 2004):
Inconclusive results and toxic doses are left out. Rule as the data show it: active = T/C of 150% or more; inactive = T/C below 125%.

Tested on: L1210 leukemia ip in BDF1 mice, survival T/C
Test: NCI In Vivo Anticancer Drug Screen. Data for tumor model L1210 Leukemia (intraperitoneal) in B6D2F1 (BDF1) mice
Conditions: endpoint: mean survival time, higher = longer survival
Outline: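 Transplanted-tumor mice were given test agent; controls received vehicle only. Survival readings from the two groups were divided (treated over control).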

[1] = dose: 100.0 mg/kg/injection, schedule: Q04DX003 (ip), vehicle: Klucel (hydroxypropylcellulose) (HPC)
[2] = dose: 100.0 mg/kg/injection, schedule: Q04DX003 (ip), vehicle: saline with Tween-80
[3] = dose: 200.0 mg/kg/injection, schedule: Q04DX003 (ip), vehicle: saline with Tween-80
[4] = dose: 50.0 mg/kg/injection, schedule: Q01DX009 (ip), vehicle: saline with Tween-80
[5] = dose: 5.0 mg/kg/injection, schedule: Q01DX001 (ip), vehicle: saline
[6] = dose: 10.0 mg/kg/injection, schedule: Q01DX001 (ip), vehicle: saline
[7] = dose: 20.0 mg/kg/injection, schedule: Q01DX001 (ip), vehicle: saline
[8] = dose: 40.0 mg/kg/injection, schedule: Q01DX001 (ip), vehicle: saline
[9] = dose: 25.0 mg/kg/injection, schedule: Q01DX009 (ip), vehicle: saline with Tween-80
[10] = dose: 100.0 mg/kg/injection, schedule: Q01DX009 (ip), vehicle: saline with Tween-80
[11] = dose: 200.0 mg/kg/injection, schedule: Q04DX003 (ip), vehicle: Klucel (hydroxypropylcellulose) (HPC)
[12] = dose: 100.0 mg/kg/injection, schedule: Q01DX009 (ip), vehicle: Klucel (hydroxypropylcellulose) (HPC)
[13] = dose: 200.0 mg/kg/injection, schedule: Q01DX009 (ip), vehicle: Klucel (hydroxypropylcellulose) (HPC)
[14] = dose: 400.0 mg/kg/injection, schedule: Q01DX009 (ip), vehicle: Klucel (hydroxypropylcellulose) (HPC)
[15] = dose: 400.0 mg/kg/injection, schedule: Q04DX003 (ip), vehicle: Klucel (hydroxypropylcellulose) (HPC)
[16] = dose: 400.0 mg/kg/injection, schedule: Q04DX003 (ip), vehicle: saline with Tween-80
[17] = dose: 75.0 mg/kg/injection, schedule: Q01DX001 (ip), vehicle: other
[18] = dose: 100.0 mg/kg/injection, schedule: Q04DX003 (ip), vehicle: saline
[19] = dose: 200.0 mg/kg/injection, schedule: Q01DX009 (ip), vehicle: saline with Tween-80
[20] = dose: 100.0 mg/kg/injection, schedule: Q01DX009 (ip), vehicle: saline

Measured: T/C

CCOC(=O)CCCN(c1ccc(OC)c(OC)c1)S(=O)(=O)c1ccc(C)cc1
inactive: dose: 100.0 mg/kg/injection, schedule: Q01DX001 (ip), vehicle: carboxymethylcellulose (CMC) 97 % of control | dose: 200.0 mg/kg/injection, schedule: Q01DX001 (ip), vehicle: carboxymethylcellulose (CMC) 105 % of control | dose: 400.0 mg/kg/injection, schedule: Q01DX001 (ip), vehicle: carboxymethylcellulose (CMC) 94 % of control

O=C(Nc1ccc2cc(S(=O)(=O)O)ccc2c1)c1ccc(N=Nc2c(S(=O)(=O)O)cc3cc(S(=O)(=O)O)cc(NC(=O)c4ccccc4)c3c2O)cc1
inactive: dose: 25.0 mg/kg/injection, schedule: Q01DX001 (ip), vehicle: Klucel (hydroxypropylcellulose) (HPC) 93 % of control | dose: 25.0 mg/kg/injection, schedule: Q01DX009 (ip), vehicle: other 108 % of control | dose: 25.0 mg/kg/injection, schedule: Q04DX003 (ip), vehicle: Klucel (hydroxypropylcellulose) (HPC) 95 % of control | dose: 50.0 mg/kg/injection, schedule: Q01DX001 (ip), vehicle: Klucel (hydroxypropylcellulose) (HPC) 88 % of control | dose: 50.0 mg/kg/injection, schedule: Q01DX009 (ip), vehicle: other 102 % of control | dose: 50.0 mg/kg/injection, schedule: Q04DX003 (ip), vehicle: Klucel (hydroxypropylcellulose) (HPC) 98 % of control | dose: 100.0 mg/kg/injection, schedule: Q01DX001 (ip), vehicle: Klucel (hydroxypropylcellulose) (HPC) 92 % of control | dose: 100.0 mg/kg/injection, schedule: Q01DX009 (ip), vehicle: other 97 % of control | [1] 101 % of control | [2] 104 % of control | dose: 150.0 mg/kg/injection, schedule: Q01DX009 (ip), vehicle: other 89 % of control | [3] 91 % of control

O=C(O)/C(Cl)=C(/Cl)C(Cl)=C(Cl)Cl
inactive: [4] 97 % of control

CCN(CC)CCCNc1c2ccccc2nc2ccccc12
inactive: [5] 113 % of control | [6] 104 % of control | [7] 115 % of control | [8] 87 % of control

Cc1ccc(NC(N)=S)cc1C
inactive: [9] 105 % of control | [4] 90 % of control | [10] 86 % of control

Cc1cc(=O)oc2cc(O)ccc12
inactive: [1] 100 % of control | [11] 98 % of control

CCOC(=O)c1cnc(SC)nc1Oc1ccccc1F
inactive: [12] 105 % of control | [1] 96 % of control | [13] 96 % of control | [11] 119 % of control | [14] 97 % of control | [15] 91 % of control

S=C1SCC(c2ccccc2)S1 (centres undefined)
inactive: [2] 92 % of control | [3] 92 % of control | [16] 89 % of control

O=S(=O)(O)c1ccc(CCCCCCCCCl)cc1
inactive: dose: 100.0 mg/kg/injection, schedule: Q04DX002 (ip), vehicle: saline 87 % of control | dose: 200.0 mg/kg/injection, schedule: Q04DX002 (ip), vehicle: saline 93 % of control

Cc1ccc(NC(=O)NCCCl)cc1NC(=O)NCCCl
inactive: dose: 50.0 mg/kg/injection, schedule: Q01DX009 (ip), vehicle: Klucel (hydroxypropylcellulose) (HPC) 106 % of control | [12] 97 % of control | [1] 94 % of control | [13] 108 % of control | [11] 95 % of control

CCOC(=O)C(C#N)C(C(C)=O)C(=O)OCC (centres undefined)
inactive: dose: 25.0 mg/kg/injection, schedule: Q01DX009 (ip), vehicle: saline sonified 120 % of control | dose: 50.0 mg/kg/injection, schedule: Q01DX009 (ip), vehicle: saline sonified 124 % of control | [17] 94 % of control | dose: 100.0 mg/kg/injection, schedule: Q01DX009 (ip), vehicle: saline sonified 104 % of control | dose: 100.0 mg/kg/injection, schedule: Q04DX003 (ip), vehicle: saline sonified 110 % of control | dose: 150.0 mg/kg/injection, schedule: Q01DX001 (ip), vehicle: other 102 % of control | dose: 300.0 mg/kg/injection, schedule: Q01DX001 (ip), vehicle: other 100 % of control

CCOC(=O)N1C(=O)C2C3CCC(O3)C2C1=O (centres undefined)
inactive: [9] 107 % of control | [4] 110 % of control

O=[N+]([O-])c1ccc(N=N/C(=N\Nc2ccccc2)c2ccccc2)cc1
inactive: [12] 89 % of control | [13] 89 % of control | [14] 94 % of control

CC(C)=CC1CC(C)C2(CCC3(C)CC4C(C(=O)CC4(C)O)/C(C=O)=C\CC32)O1 (centres undefined)
inactive: [5] 103 % of control | [6] 97 % of control | [7] 97 % of control | [8] 97 % of control | dose: 80.0 mg/kg/injection, schedule: Q01DX001 (ip), vehicle: saline 109 % of control

C(=P(c1ccccc1)(c1ccccc1)c1ccccc1)[P+](c1ccccc1)(c1ccccc1)c1ccccc1.[Br][Cu][Br]
inactive: dose: 1.56 mg/kg/injection, schedule: Q01DX009 (ip), vehicle: Klucel (hydroxypropylcellulose) (HPC) 101 % of control | dose: 3.13 mg/kg/injection, schedule: Q01DX009 (ip), vehicle: Klucel (hydroxypropylcellulose) (HPC) 109 % of control | dose: 6.25 mg/kg/injection, schedule: Q01DX009 (ip), vehicle: Klucel (hydroxypropylcellulose) (HPC) 114 % of control

COC(=O)c1ccccc1N=NNc1ccc(C(F)(F)F)c([N+](=O)[O-])c1
inactive: [2] 98 % of control | [3] 103 % of control | [16] 88 % of control

CCOC(=O)c1cnc(SC)nc1Nc1cccc([N+](=O)[O-])c1
inactive: [12] 110 % of control | [1] 97 % of control | [13] 97 % of control | [11] 98 % of control | [14] 95 % of control | [15] 95 % of control

CCN(CCO)Cc1cccc2ccccc12
inactive: dose: 25.0 mg/kg/injection, schedule: Q04DX003 (ip), vehicle: saline 97 % of control | dose: 50.0 mg/kg/injection, schedule: Q04DX003 (ip), vehicle: saline 101 % of control | [2] 98 % of control | [18] 101 % of control

Nc1n[nH]c(N)n1.[Ni]
inactive: [10] 101 % of control | [2] 113 % of control | [19] 111 % of control | [3] 103 % of control | dose: 400.0 mg/kg/injection, schedule: Q01DX009 (ip), vehicle: saline with Tween-80 104 % of control | [16] 98 % of control

CC1(C)CSC(=S)N1CCC#N
inactive: [17] 104 % of control

CC(C)=CCC(=O)OC(Cc1ccccc1)(c1ccccc1)C(C)CN(C)C (centres undefined)
inactive: dose: 25.0 mg/kg/injection, schedule: Q01DX009 (ip), vehicle: saline 101 % of control | dose: 50.0 mg/kg/injection, schedule: Q01DX009 (ip), vehicle: saline 98 % of control | [20] 98 % of control

OC1/C(=C/c2ccccc2)c2cccc3cccc1c23 (centres undefined)
inactive: [4] 90 % of control | [10] 93 % of control | [19] 93 % of control

CCCCCCOC(=O)Nc1ccc(S(=O)(=O)N(C)C)cc1
inactive: dose: 100.0 mg/kg/injection, schedule: Q01DX001 (ip), vehicle: saline 103 % of control | dose: 200.0 mg/kg/injection, schedule: Q01DX001 (ip), vehicle: saline 108 % of control | dose: 400.0 mg/kg/injection, schedule: Q01DX001 (ip), vehicle: saline 102 % of control

CC(C)(O)C(O)C(=O)O (centres undefined)
inactive: [20] 92 % of control | [18] 106 % of control | dose: 200.0 mg/kg/injection, schedule: Q01DX009 (ip), vehicle: saline 89 % of control | dose: 200.0 mg/kg/injection, schedule: Q04DX003 (ip), vehicle: saline 104 % of control | dose: 400.0 mg/kg/injection, schedule: Q04DX003 (ip), vehicle: saline 97 % of control

O=C1c2ccccc2-c2c(I)cccc21
inactive: dose: 25.6 mg/kg/injection, schedule: Q04DX002 (ip), vehicle: saline with Tween-80 94 % of control | dose: 64.0 mg/kg/injection, schedule: Q04DX002 (ip), vehicle: saline with Tween-80 94 % of control | dose: 160.0 mg/kg/injection, schedule: Q04DX002 (ip), vehicle: saline with Tween-80 98 % of control | dose: 400.0 mg/kg/injection, schedule: Q04DX002 (ip), vehicle: saline with Tween-80 94 % of control
